From US11952365B2, “Anti-viral compounds” (Aligos Therapeutics, Inc., priority 2020, dated 2024)
Like-named read-outs stand apart in the source and are kept apart here.

Legend:
HRV3C = HRV3C (Human rhinovirus 14, UniProt P03303); assay: HRV3C protease assay (duplex, SAMDI-MS); format: biochemical, HRV
How it was run: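 Readout is SAMDI mass spectrometry: biotinylated substrates, products and internal standards were immobilized on neutravidin monolayers and product formation taken as the AUC ratio to internal standard. Reactions ran 30 min at ambient temperature after 30 min compound preincubation, in duplex with 3CLpro. IC50 values came from four-parameter curve fitting.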

[1] = test system: human beta-coronavirus OC43; assay: microbe, parasite or virus in culture; format: cell-based; details: Betacoronavirus 1, OC43, HeLa, 144 h, OC43 in HeLa cells, 6 days at 33° C., class symbols; read-out: EC50
[2] = Cytotoxicity plates without OC43 virus (cell-titer-glo); format: cell-based, human; details: human; HeLa cells without OC43 virus, class symbols
How it was run: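 Run as a virus-free counterpart of the OC43 cytopathic-effect assay. Attached HeLa cells received compound dilutions in EMEM with 2% FBS and were kept 6 days at 33 °C. Cell viability was then measured by CellTiter-Glo luminescence.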

[3] = test system: SARS-CoV-2-GHB-03021/2020; assay: SARS-CoV-2 Infection Model in Huh7 Cells; format: cell-based; details: Severe acute respiratory syndrome coronavirus 2, Huh-7, 96 h, SARS-CoV-2, day 4 p.i., MTS
[4] = test system: SARS-CoV-2-GHB-03021/2020; assay: microbe, parasite or virus in culture; format: cell-based; details: Severe acute respiratory syndrome coronavirus 2, Vero C1008, 96 h; read-out: VeroE6 + CP (EC50)
human cathepsin L = target: T1, human cathepsin L (Homo sapiens, UniProt P07711); assay: cathepsin L assay; format: biochemical; details: 10 pM human cathepsin L, Z-FR-AMC 2 μM
T1 construct: purchased R&D Systems
How it was run: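 Reactions began by adding 2 μM (final) Z-FR-AMC substrate to 10 pM human cathepsin L that had been preincubated 30 min with inhibitor. Kinetic AMC fluorescence at 355/460 nm over 30 min at 2-min intervals; four-parameter fitting gave IC50 values.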

in vitro [5] = details: human
in vitro [6] = details: African green monkey, VeroE6 + CP (CC50), Vero E6-eGFP cells with CP-100356, absence of virus, MTS
3CLpro = 3CLpro (Severe acute respiratory syndrome coronavirus 2, UniProt P0DTD1); assay: SARS-CoV-2 3CLpro protease assay (duplex, SAMDI-MS); format: biochemical; parameters: For the duplex assay, 3CLpro and HRV3C was added; details: 3CLpro, 30 mins preincubation, class symbols; read-out: SARS-Cov-2 IC50
[7] = HRV3C, 30 mins preincubation, class symbols, read-out: HRV IC50
[8] = HRV3C, 30 mins preincubation, bound, read-out: HRV IC50

| SMILES | IC50 (HRV3C; [7]) | EC50 [1] | CC50 at 6 days [2] | EC50 ([3]; class symbols) | EC50 [4] | IC50 (human cathepsin L; class symbols) | CC50 (in vitro [5]) | CC50 (in vitro [6]; numeric bounds) | IC50 (3CLpro) | IC50 (HRV3C; [8]) | IC50 (human cathepsin L; bound) | CC50 (in vitro [6]; class symbols) | EC50 ([3]; numeric bounds) | IC50 (HRV3C; HRV IC50, HRV3C, 30 mins preincubation, class symbols) | IC50 (HRV3C; HRV3C, printed bound without unit, read-out: HRV IC50) |
| --- | --- | --- | --- | --- | --- | --- | --- | --- | --- | --- | --- | --- | --- | --- | --- |
| COc1cccc2[nH]c(C(=O)N3C[C@]4(C[C@H]3C(=O)NC(C[C@@H]3CCCNC3=O)C(=O)C(N)=O)CC4(F)F)cc12 (stereo partly drawn) [Compound 46, (3S,6S)—N-(4-amino-3,4-dioxo-1-((S)-2-oxopiperidin-3-yl)butan-2-yl)-1,1-difluoro-5-(4-methoxy-1H-indole-2-carbonyl)-5-azaspiro[2.4]heptane-6-carboxamide] | 200 to 2000 nM | 10000 to 100000 nM | > 10 µM | 10 to 100 µM | 10 to 100 µM | 1 to 10 µM | > 10 µM | > 100 µM | 20 to 200 nM | – | – | – | – | – | – |
| COc1cccc2[nH]c(C(=O)N3C[C@]4(C[C@H]3C(=O)N[C@@H](C[C@@H]3CCCNC3=O)C(=O)CO)CC4(F)F)cc12 [Compound 47, (3S,6S)-1,1-difluoro-N-[(2S)-4-hydroxy-3-oxo-1-[(3S)-2-oxopiperidin-3-yl]butan-2-yl]-5-(4-methoxy-1H-indole-2-carbonyl)-5-azaspiro[2.4]heptane-6-carboxamide] | 2000 to 20000 nM | 100 to 1000 nM | > 10 µM | 1 to 10 µM | 1 to 10 µM | ≥ 10 µM | > 100 µM | > 100 µM | 20 to 200 nM | – | – | – | – | – | – |
| COc1cccc2[nH]c(C(=O)N3C[C@]4(C[C@H]3C(=O)N[C@@H](C[C@@H]3CCCNC3=O)C(=O)COCc3ccccc3)CC4(F)F)cc12 [Compound 47A, (3S,6S)—N-[(2S)-4-(benzyloxy)-3-oxo-1-[(3S)-2-oxopiperidin-3-yl]butan-2-yl]-1,1-difluoro-5-(4-methoxy-1H-indole-2-carbonyl)-5-azaspiro[2.4]heptane-6-carboxamide] | 2000 to 20000 nM | < 100 nM | > 10 µM | 1 to 10 µM | 1 to 10 µM | ≥ 10 µM | > 10 µM | > 100 µM | 20 to 200 nM | – | – | – | – | – | – |
| CC(C)[C@@H]1C[C@@H](C(=O)NC(C[C@@H]2CCNC2=O)C(=O)C(=O)NCc2ccccc2)N(C(=O)c2cc3ccccc3[nH]2)C1 (stereo partly drawn) [Compound 48, N-benzyl-3-{[(2S,4S)-1-(1H-indole-2-carbonyl)-4-isopropylpyrrolidin-2-yl]formamido}-2-oxo-4-[(3S)-2-oxopyrrolidin-3-yl]butanamide] | 2000 to 20000 nM | 100 to 1000 nM | > 10 µM | 1 to 10 µM | 1 to 10 µM | 0.1 to 1 µM | > 10 µM | > 100 µM | 200 to 2000 nM | – | – | – | – | – | – |
| COc1cccc2[nH]c(C(=O)N3C[C@H]4[C@@H]([C@H]3C(=O)N[C@@H](C[C@@H]3CCCNC3=O)C(=O)CO)C4(C)C)cc12 [Compound 49, (1R,2S,5S)—N-[(2S)-4-hydroxy-3-oxo-1-[(3S)-2-oxopiperidin-3-yl]butan-2-yl]-3-(4-methoxy-1H-indole-2-carbonyl)-6,6-dimethyl-3-azabicyclo[3.1.0]hexane-2-carboxamide] | – | 100 to 1000 nM | > 10 µM | 1 to 10 µM | 1 to 10 µM | – | > 100 µM | > 100 µM | < 20 nM | > 10000 nM | > 3.3 µM | – | – | – | – |
| COc1cccc2[nH]c(C(=O)N3C[C@H]4[C@@H]([C@H]3C(=O)N[C@@H](C[C@@H]3CCCNC3=O)C(=O)COCc3ccccc3)C4(C)C)cc12 [Compound 49A, (1R,2S,5S)—N-[(2S)-4-(benzyloxy)-3-oxo-1-[(3S)-2-oxopiperidin-3-yl]butan-2-yl]-3-(4-methoxy-1H-indole-2-carbonyl)-6,6-dimethyl-3-azabicyclo[3.1.0]hexane-2-carboxamide] | – | 100 to 1000 nM | > 10 µM | 1 to 10 µM | 1 to 10 µM | ≥ 10 µM | > 10 µM | – | 20 to 200 nM | > 10000 nM | – | > 10 µM | – | – | – |
| COc1cccc2[nH]c(C(=O)N3C[C@@H]4CCC[C@@H]4[C@H]3C(=O)N[C@@H](C[C@@H]3CCNC3=O)C(=O)c3nc4ccccc4s3)cc12 [Compound 50, (1S,3aR,6aS)—N-[(2S)-1-(1,3-benzothiazol-2-yl)-1-oxo-3-[(3S)-2-oxopyrrolidin-3-yl]propan-2-yl]-2-(4-methoxy-1H-indole-2-carbonyl)-hexahydro-1H-cyclopenta[c]pyrrole-1-carboxamide] | – | 100 to 1000 nM | > 10 µM | 1 to 10 µM | 1 to 10 µM | ≥ 10 µM | > 10 µM | > 100 µM | 20 to 200 nM | > 10000 nM | – | – | – | – | – |
| COc1cccc2[nH]c(C(=O)N3C[C@H]4[C@@H]([C@H]3C(=O)N[C@@H](C[C@@H]3CCNC3=O)C(=O)C(N)=O)C4(C)C)cc12 [Compound 51, (3S)-3-{[(1R,2S,5S)-3-(4-methoxy-1H-indole-2-carbonyl)-6,6-dimethyl-3-azabicyclo[3.1.0]hexan-2-yl]formamido}-2-oxo-4-[(3S)-2-oxopyrrolidin-3-yl]butanamide] | 200 to 2000 nM | 1000 to 10000 nM | > 10 µM | – | > 100 µM | 0.1 to 1 µM | > 100 µM | > 100 µM | < 20 nM | – | – | – | > 100 µM | – | – |
| COc1cccc2[nH]c(C(=O)N3C[C@@H]4CCC[C@@H]4[C@H]3C(=O)NC(C[C@@H]3CCNC3=O)C(=O)C(=O)NC3CC3)cc12 (stereo partly drawn) [Compound 52, 3-{[(1S,3aR,6aS)-2-(4-methoxy-1H-indole-2-carbonyl)-hexahydro-1H-cyclopenta[c]pyrrol-1-yl]formamido}-N-cyclopropyl-2-oxo-4-[(3S)-2-oxopyrrolidin-3-yl]butanamide] | 200 to 2000 nM | 1000 to 10000 nM | > 10 µM | 10 to 100 µM | 1 to 10 µM | ≥ 10 µM | > 100 µM | > 100 µM | < 20 nM | – | – | – | – | – | – |
| COc1cccc2[nH]c(C(=O)N3C[C@@H]4CCC[C@@H]4[C@H]3C(=O)N[C@@H](C[C@@H]3CCCNC3=O)C(O)S(=O)(=O)O)cc12 (stereo partly drawn) [Compound 53, sodium (2S)-2-{[(1S,3aR,6aS)-2-(4-methoxy-1H-indole-2-carbonyl)-hexahydro-1H-cyclopenta[c]pyrrol-1-yl]formamido}-1-hydroxy-3-[(3S)-2-oxopiperidin-3-yl]propane-1-sulfonate] | – | 100 to 1000 nM | > 10 µM | < 1 µM | 1 to 10 µM | ≥ 10 µM | > 100 µM | > 100 µM | < 20 nM | – | – | – | – | 20 to 200 nM | – |
| COc1cccc2[nH]c(C(=O)N3C[C@@H]4CCC[C@@H]4[C@H]3C(=O)N[C@@H](C[C@@H]3CCNC3=O)C(=O)c3ncc[nH]3)cc12 [Compound 54, (1S,3aR,6aS)—N-[(2S)-1-(1H-imidazol-2-yl)-1-oxo-3-[(3S)-2-oxopyrrolidin-3-yl]propan-2-yl]-2-(4-methoxy-1H-indole-2-carbonyl)-hexahydro-1H-cyclopenta[c]pyrrole-1-carboxamide] | – | 10000 to 100000 nM | > 10 µM | – | > 100 µM | ≥ 10 µM | > 100 µM | > 100 µM | 2000 to 20000 nM | – | – | – | > 100 µM | – | > 10000 nM |
